Laboratory results: patent US8999987B2, “Dihydropyridophthalazinone inhibitors of poly(ADP-ribose)polymerase (PARP)” (BioMarin Pharmaceutical Inc., priority 2008, dated 2015)

Columns and labels:
BRCA2-deficient tumors = details: cited from earlier work
CAPAN-1 cells = CAPAN-1 cells in DMEM with FCS (20% v/v); cited from earlier work
MX-1 xenograft model = test: Xenograft combination study with Cisplatin; format: in vivo, mice; details: MX-1 breast xenograft model; comparable doses of cisplatin or PARP inhibitor alone
Method: Female athymic nu/nu mice (8-10 weeks old) were used for all in vivo xenograft studies. Mice were quarantined for at least 1 week before experimental manipulation. Exponentially growing cells or in vivo passaged tumor fragments were implanted subcutaneously at the right flank of nude mice. Tumor-bearing mice were randomized according to tumor size into 6-8 mice/group in each study (average tumor size ˜150 mm^3). Mice were observed daily for survival and tumors were measured twice weekly by caliper in two dimensions and converted to tumor mass using the formula for a prolate ellipsoid (V=0.5 a×b^2), where a and b are the long and short diameters of the tumor, respectively, and assuming unit density (1 mm^3=1 mg).
Combination study: PARP inhibitory compounds described herein in vehicle 10% DMAc/6% Solutal/84% PBS, were either administered orally, once daily for 5 days with Temozolomide (17 mg/kg or 34 mg/kg, p.o., qd×5, 30 min after each dose of compounds) in SW620 xenograft model or dosed orally, once daily for 8 days with 6 mg/kg Cisplatin (once by ip on day 3, 30 min after first dose of PARP inhibitors) in MX-1 xenograft model. Mice were observed and individual tumor was measured for 30 more days after the last dosing of PARP inhibitory compounds.

PARP-1 = PARP-1 (Homo sapiens, UniProt P09874); details: PARP-1 inhibitor; cited from earlier work
Sequence of PARP-1 (P09874 whole entry, species assumed): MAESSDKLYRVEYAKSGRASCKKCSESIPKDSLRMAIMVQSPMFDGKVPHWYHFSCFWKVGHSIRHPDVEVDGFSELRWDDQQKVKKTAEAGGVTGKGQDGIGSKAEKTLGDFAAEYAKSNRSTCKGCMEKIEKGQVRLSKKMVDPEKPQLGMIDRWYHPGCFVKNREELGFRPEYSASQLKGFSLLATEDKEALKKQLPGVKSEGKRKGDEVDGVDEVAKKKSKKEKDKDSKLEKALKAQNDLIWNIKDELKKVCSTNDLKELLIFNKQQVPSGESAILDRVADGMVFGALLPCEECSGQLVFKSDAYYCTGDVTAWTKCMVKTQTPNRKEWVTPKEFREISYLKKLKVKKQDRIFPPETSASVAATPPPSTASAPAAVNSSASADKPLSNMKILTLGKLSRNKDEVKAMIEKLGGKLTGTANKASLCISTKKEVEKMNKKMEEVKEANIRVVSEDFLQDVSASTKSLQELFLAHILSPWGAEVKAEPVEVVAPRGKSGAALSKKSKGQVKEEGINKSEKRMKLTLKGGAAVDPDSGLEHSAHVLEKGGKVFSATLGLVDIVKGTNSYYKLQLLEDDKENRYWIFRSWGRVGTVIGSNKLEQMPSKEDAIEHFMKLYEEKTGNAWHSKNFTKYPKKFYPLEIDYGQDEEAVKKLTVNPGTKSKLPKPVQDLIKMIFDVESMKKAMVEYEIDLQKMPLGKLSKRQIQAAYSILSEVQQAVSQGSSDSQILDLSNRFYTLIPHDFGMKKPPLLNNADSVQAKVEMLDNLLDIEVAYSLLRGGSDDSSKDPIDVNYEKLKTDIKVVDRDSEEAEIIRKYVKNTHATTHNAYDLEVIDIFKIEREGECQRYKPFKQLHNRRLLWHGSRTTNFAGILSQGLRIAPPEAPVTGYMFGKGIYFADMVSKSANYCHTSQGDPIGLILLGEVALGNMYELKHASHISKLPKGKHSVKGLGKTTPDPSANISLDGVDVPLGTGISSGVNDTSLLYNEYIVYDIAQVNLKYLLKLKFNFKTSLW

[1] = system: BRCA2-deficient cell line V-C8; details: V-C8 compared with the BRCA2 wild type control; cited from earlier work

SMILES | in vivo efficacy, tumor growth (BRCA2-deficient tumors) | sensitivity in clonogenic survival assay (CAPAN-1 cells) | tumor inhibition, agent alone (MX-1 xenograft model) | Ki (PARP-1) | sensitivity in clonogenic survival assay [1]
O=C1CCC(=O)N1c1cc(Cc2n[nH]c(=O)c3ccccc23)ccc1F [KU0058684] | shown in vivo efficacy in blocking the growth of BRCA2-deficient tumors | showing sensitivity to PARP inhibition | – | – | –
N.N.[Cl][Pt][Cl] [cisplatin] | – | – | only small to modest tumor inhibition | – | –
CN(C)Cc1ccc(-c2nc3cccc4c3n2CCNC4=O)cc1 [AG14361] | – | – | – | 5 nM | exhibited sensitivity
Cc1nc2c(O)cccc2c(=O)[nH]1 [NU1025] | – | – | – | 50 nM | exhibited sensitivity
